From the supplement of paper PMC10307832

Legend:
Experiment in all cases: relative viability (nuclei count vs DMSO), 5 days (fraction); higher = more cells survive
[1] = compound: O=c1ncccn1[C@@H]1O[C@H](CO)[C@@H](O)[C@H]1O [Zebularine] + C[C@]1(O)C[C@@H](c2nc(-c3ccc4ccc(-c5ccccc5)nc4c3)c3c(N)nccn32)C1 [Linsitinib] (partner 1 µM)
In short: (§1)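 Lung cancer cell lines in 1536-well plates were dosed by pin tool the day after seeding, either with one drug alone or with a fixed anchor-drug dose plus five library-drug doses (not always all listed) in √10 steps. After 5 days, cells were fixed and their nuclei stained in one step (final 0.05% Triton X-100, 1% formaldehyde, 1 ug/ml Hoechst), then counted on 4× images. Relative viability is the nuclei count in treated wells divided by that in vehicle wells. Values are medians of duplicate plates.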

[2] = compound: CC(C)CCN1c2nc(Nc3cc(F)c(O)c(F)c3)ncc2N(C)C(=O)C1C [BI-D1870] + CC1(C)CCC(c2ccc(Cl)cc2)=C(CN2CCN(c3ccc(C(=O)NS(=O)(=O)c4ccc(N[C@H](CCN5CCOCC5)CSc5ccccc5)c(S(=O)(=O)C(F)(F)F)c4)cc3)CC2)C1 [Navitoclax] (partner 0.5 µM)
In short: as §1

[3] = compound: CC(C)CCN1c2nc(Nc3cc(F)c(O)c(F)c3)ncc2N(C)C(=O)C1C [BI-D1870] + CC(=O)c1c(C)c2cnc(Nc3ccc(N4CCNCC4)cn3)nc2n(C2CCCC2)c1=O [Palbociclib] (partner 0.5 µM)
In short: as §1

[4] = compound: O=c1ncccn1[C@@H]1O[C@H](CO)[C@@H](O)[C@H]1O [Zebularine] + C[C@@H](Oc1cc(-c2cnn(C3CCNCC3)c2)cnc1N)c1c(Cl)ccc(F)c1Cl [Crizotinib] (partner 1 µM)
In short: as §1

| Cell Line | relative viability ([1]; first compound 1 µM) | relative viability ([1]; first compound 3.162 µM) | relative viability ([1]; first compound 10 µM) | relative viability ([1]; first compound 31.62 µM) | relative viability ([1]; first compound 100 µM) | relative viability ([2]; first compound 0.04 µM) | relative viability ([2]; first compound 0.1265 µM) | relative viability ([2]; first compound 0.4 µM) | relative viability ([2]; first compound 1.265 µM) | relative viability ([2]; first compound 4 µM) | relative viability ([3]; first compound 0.04 µM) | relative viability ([3]; first compound 0.1265 µM) | relative viability ([3]; first compound 0.4 µM) | relative viability ([3]; first compound 1.265 µM) | relative viability ([3]; first compound 4 µM) | relative viability ([4]; first compound 1 µM) | relative viability ([4]; first compound 3.162 µM) | relative viability ([4]; first compound 10 µM) | relative viability ([4]; first compound 31.62 µM) | relative viability ([4]; first compound 100 µM) |
| --- | --- | --- | --- | --- | --- | --- | --- | --- | --- | --- | --- | --- | --- | --- | --- | --- | --- | --- | --- | --- |
| LCLC-97TM1 | 0.192 | 0.168 | 0.144 | 0.128 | 0.11 | 0.407 | 0.398 | 0.574 | 0.364 | 0.613 | 0.262 | 0.217 | 0.171 | 0.217 | 0.17 | 0.355 | 0.291 | 0.145 | 0.121 | 0.12 |
| LK-2 | 0.52 | 0.564 | 0.371 | 0.35 | 0.218 | 1.22 | 0.885 | 0.964 | 1.05 | 0.945 | 0.803 | 0.842 | 0.598 | 0.701 | 0.672 | 0.217 | 0.236 | 0.266 | 0.209 | 0.23 |
| LOU-NH91 | 0.893 | 0.963 | 0.868 | 0.876 | 0.629 | 0.854 | 0.631 | 0.721 | 0.662 | 0.522 | 0.497 | 0.57 | 0.499 | 0.529 | 0.509 | 0.713 | 0.732 | 0.693 | 0.738 | 0.647 |
| LU99A | 0.66 | 0.529 | 0.437 | 0.344 | 0.169 | 0.805 | 0.744 | 0.798 | 0.961 | 0.911 | 0.431 | 0.363 | 0.387 | 0.37 | 0.331 | 0.683 | 0.531 | 0.383 | 0.255 | 0.153 |
| LXF-289 | 1.08 | 0.977 | 0.96 | 0.78 | 0.289 | 0.951 | 0.923 | 0.94 | 0.936 | 0.895 | 0.577 | 0.583 | 0.598 | 0.641 | 0.558 | 0.835 | 0.828 | 0.714 | 0.622 | 0.238 |
| NCI-H23 | 0.671 | 0.549 |  | 0.646 | 0.548 | 1.15 | 0.741 | 0.792 | 0.891 | 0.888 | 0.568 | 0.47 | 0.546 | 0.525 | 0.323 | 0.482 | 0.559 |  | 0.456 | 0.5 |
| NCI-H322M | 0.945 | 0.902 | 0.721 | 0.849 | 0.685 | 1.22 | 1.19 | 1.44 | 1.06 | 1.07 | 0.492 | 0.475 | 0.461 | 0.483 | 0.501 | 0.969 | 0.897 | 0.804 | 0.821 | 0.523 |
| NCI-H441 | 0.581 | 0.548 | 0.291 | 0.249 | 0.234 | 0.478 | 0.575 | 0.692 | 0.642 | 0.338 | 0.266 | 0.21 | 0.173 | 0.225 | 0.229 | 0.874 | 0.657 | 0.289 | 0.173 | 0.219 |
| NCI-H460 | 1.21 | 1.06 | 0.272 | 0.388 | 0.0365 | 1.24 | 1.09 | 1.08 | 0.407 | 0.0595 | 0.226 | 0.154 | 0.135 | 0.184 | 0.121 | 1.06 | 0.987 | 0.273 | 0.375 | 0.1 |
| NCI-H520 | 0.98 | 1.02 | 0.47 | 0.297 | 0.199 | 1.12 | 1.01 | 0.938 | 1.05 | 0.829 | 0.253 | 0.218 | 0.217 | 0.224 | 0.13 | 0.784 | 0.717 | 0.429 | 0.372 | 0.261 |
| NCI-H647 | 1.42 | 1.06 | 0.426 | 0.172 | 0.17 | 1.27 | 0.978 | 1.08 | 1.04 | 0.848 | 0.488 | 0.342 | 0.463 | 0.371 | 0.215 | 1.18 | 0.981 | 0.254 | 0.142 | 0.228 |
| NCI-H727 | 0.3 | 0.3 | 0.286 | 0.365 | 0.203 | 0.459 | 0.362 | 0.416 | 0.607 | 0.501 | 0.594 | 0.579 | 0.648 | 0.64 | 0.66 | 0.927 | 0.613 | 0.638 | 0.947 | 0.881 |
| NCI-H838 | 1.14 | 1.02 | 0.733 | 0.751 | 0.319 | 1.28 | 1.04 | 1.12 | 1.29 | 1.21 | 0.243 | 0.236 | 0.232 | 0.262 | 0.209 | 0.93 | 0.838 | 0.493 | 0.65 | 0.3 |
| NCI-H1355 | 1 | 0.769 | 0.752 | 0.513 | 0.283 | 0.959 | 0.959 | 0.988 | 1.05 | 1.03 | 0.384 | 0.368 | 0.403 | 0.446 | 0.392 | 1.12 | 0.966 | 0.87 | 0.404 | 0.315 |
| NCI-H1437 | 1.18 | 1.2 |  | 0.989 | 0.342 | 1.19 | 1.06 | 1.11 | 1.03 | 0.973 | 0.304 | 0.336 | 0.309 | 0.272 | 0.212 | 1.09 | 0.987 |  | 0.902 | 0.31 |
| NCI-H1651 | 1 | 0.893 |  | 0.904 | 0.465 | 1.15 | 0.946 | 0.935 | 1.08 | 0.778 | 0.473 | 0.503 | 0.494 | 0.555 | 0.536 | 0.919 | 0.893 | 0.604 | 0.745 | 0.514 |
